Experimental findings from patent US11136291B2, “Antifungal compounds and uses thereof” (Dana-Farber Cancer Institute, Inc., priority 2016, dated 2021) are described below.

Test [1] deals with PDRE-dependent luciferase gene transcription. Type of test: cell-based, Saccharomyces cerevisiae. The note with it: 40 μM ketoconazole; for Luciferase activity (5 μM + keto) (% DMSO + keto): 5 μM compound; for Luciferase activity (50 μM + keto) (% DMSO + keto): 50 μM compound.
For the next test, the system named is Candida glabrata DSY562. The test is described as follows: Broth dilution MIC. The settings on record: Nakaseomyces glabratus. In general terms: Dilution methods test growth across graded concentrations, often in twofold steps.
In the next test the test system is Candida glabrata DSY565. The test is described as follows: Broth dilution MIC. The settings on record: Nakaseomyces glabratus.
A further test concerns Candida albicans SC5314. In words: Broth dilution MIC.
For the next test, the system named is Candida albicans DSY2621. In words: Broth dilution MIC.
A further test relates to Candida krusei DSY471. In words: Broth dilution MIC. The note with it: Pichia kudriavzevii, ATCC6258.
Test [2] concerns Candida tropicalis DSY472. In words: Broth dilution MIC. The settings on record: ATCC75.
Experimental: (§1) Antifungal susceptibility testing was carried out using broth dilution assays which examined effects of two-fold dilutions of compounds on cellular growth. The minimum inhibitory concentration (MIC) was defined as the drug concentration at which the optical density was equal to or decreased more than 50% from that of the drug-free culture.
Test [3] relates to Candida parapsilosis DSY473. In words: Broth dilution MIC. The note with it: ATCC22019.
Experimental: as §1
Test [4] has as its system Saccharomyces cerevisiae DSY2094. In words: Broth dilution MIC.
Experimental: as §1
The test system of test [5] is C. glabrata PDR1 wild-type or PDR1^L280F strains. The test is described as follows: Galleria mellonella survival assay. The class given is in vivo. The settings on record: […].
For test [6], the system named is C. glabrata. The test is described as follows: Mouse disseminated fungal burden model. The settings on record: mouse, in vivo. Type of test: in vivo.
Test [7] deals with C. glabrata. Type of test: in vivo, mouse. The note with it: single agent 100 mg/kg/day i.p.
Another test addresses T1, CgGal11A KIX domain (Candida glabrata, UniProt Q6FRS9).
T1 construct: other: compared with iKIX1; other: GST-CgGal11A KIX 3 μM, 30 nM FITC-CgPdr1 AD30; Kd of CgPdr1 AD30 for CgGal11A KIX domain; other: FP titration, 30 nM FITC-CgPdr1 AD30; Kd of the CgPdr1 AD for the CgGal11A KIX domain; apparent Ki; fused on or other part: N-terminal His6-GST tag
The test is described as follows: Fluorescence polarization (FP) binding/competition assay, CgPdr1 AD30 with CgGal11A KIX. The note with it: compared with iKIX1. As to the method: A fluorescein-tagged 30 amino acid C-terminal activation domain of CgPdr1 (FITC-[…] (SEQ ID NO: 1)) CgPdr1 AD30 was purchased as a synthetic peptide from Pepide2.0. The CgGal11A KIX domain was expressed as a His6-GST fusion protein and purified by affinity chromatography with Ni-NTA resin (Qiagen) and size exclusion chromatography (Sephadex 75, Pharmacia). […] For small molecule screening, fluorescein-CgPdr1 AD30 was held at a concentration of 30 nM and the GST-tagged CgGal11A KIX was at a concentration of 1 μM (above the Kd). The screen was carried out in duplicate and the volume in each well was 25 μL.
To measure the dissociation constant (Kd) of CgPdr1 AD30, FITC labeled CgPdr1 AD30 was held at a concentration of 30 nM and the GST-tagged CgGal11A KIX was prepared with concentrations ranging from 0 to 300 μM. The IC50 for iKIX-1 binding was measured with GST-tagged CgGal11A KIX held at a constant 3 μM concentration, iKIX-1 was titrated from 0 to 1000 μM and 30 nM FITC-labeled CgPdr1 AD30 was added subsequently with an HP D300 digital dispenser (Tecan Group. Maennerdorf, Switzerland). All experiments were carried out in duplicate and the s.d. is reported at each point on the plot.
The FP titration curve of the CgPdr1 AD30 was fitted to GraphPad Prisms (La Jolla, Calif., USA) One site-total binding equation (equation 1). […]
For orientation: Polarisation of emitted light reports the rotation of a fluorescent probe.

The test system of test [8] is CgCDR1 transcription (CgPdr1 target). In words: Transcription assay, quantitative real-time PCR of CgPdr1 target genes. Type of test: cell-based, Candida glabrata. On the technique in general: In qPCR the cycle at which signal appears reflects the starting amount.
For test [9], the system named is C. glabrata CgPDR1 wild-type and gain-of-function mutant strains. In words: Spot plating on gradient plates with azole. The class given is cell-based, Candida glabrata.
The subject of test [10] is C. glabrata adherence to CHO-Lec2 cells. In words: Yeast adherence to epithelial CHO-Lec2 cells. The settings on record: PDR1^L280F mutant, 30 μM iKIX1 or 40 μM ketoconazole.

Values after ≈ are worked out from the molar mass of the structure shown.

T1 sequence (Q6FRS9 whole entry, looked up, the tested form may be a part): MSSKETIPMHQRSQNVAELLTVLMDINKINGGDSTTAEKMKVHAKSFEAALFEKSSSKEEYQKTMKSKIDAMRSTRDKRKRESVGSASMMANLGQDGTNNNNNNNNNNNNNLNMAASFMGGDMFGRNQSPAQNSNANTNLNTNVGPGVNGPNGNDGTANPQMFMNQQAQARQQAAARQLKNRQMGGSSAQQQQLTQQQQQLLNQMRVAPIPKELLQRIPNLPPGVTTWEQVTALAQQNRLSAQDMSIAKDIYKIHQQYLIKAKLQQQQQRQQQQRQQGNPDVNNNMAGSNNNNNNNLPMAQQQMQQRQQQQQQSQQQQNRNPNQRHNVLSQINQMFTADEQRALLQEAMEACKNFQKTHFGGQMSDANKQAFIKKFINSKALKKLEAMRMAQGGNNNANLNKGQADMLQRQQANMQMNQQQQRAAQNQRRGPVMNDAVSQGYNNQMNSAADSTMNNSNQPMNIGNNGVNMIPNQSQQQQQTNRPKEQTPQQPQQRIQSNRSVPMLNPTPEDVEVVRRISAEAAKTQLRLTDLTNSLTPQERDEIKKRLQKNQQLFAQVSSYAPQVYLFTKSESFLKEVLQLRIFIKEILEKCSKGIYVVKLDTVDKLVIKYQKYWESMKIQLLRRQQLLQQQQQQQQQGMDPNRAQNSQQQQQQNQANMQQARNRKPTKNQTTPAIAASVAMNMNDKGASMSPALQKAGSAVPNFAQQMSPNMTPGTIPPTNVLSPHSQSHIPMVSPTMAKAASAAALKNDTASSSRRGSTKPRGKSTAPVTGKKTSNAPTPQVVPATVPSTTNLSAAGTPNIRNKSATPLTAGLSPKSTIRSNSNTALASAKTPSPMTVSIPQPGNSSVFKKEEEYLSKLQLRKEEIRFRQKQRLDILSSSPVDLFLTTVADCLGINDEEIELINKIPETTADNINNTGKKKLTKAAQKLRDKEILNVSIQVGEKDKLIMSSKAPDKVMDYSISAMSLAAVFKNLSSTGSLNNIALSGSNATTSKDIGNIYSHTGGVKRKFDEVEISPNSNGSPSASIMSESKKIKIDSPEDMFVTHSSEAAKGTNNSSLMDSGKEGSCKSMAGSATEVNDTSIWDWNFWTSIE
Experimental for Candida albicans DSY2621: as §1
Experimental for Candida albicans SC5314: as §1
Experimental for Candida glabrata DSY562: as §1
Experimental for Candida glabrata DSY565: as §1
Experimental for Candida krusei DSY471: as §1

Take `N#CC(C(=O)NNC(=S)Nc1ccc(Cl)c(Cl)c1)c1ccccc1` (stereo not drawn): in [1], the “Luciferase activity (5 μM + keto) (% DMSO + keto)” value is recorded as 86 % DMSO + keto and the “Luciferase activity (50 μM + keto) (% DMSO + keto)” value is given as 38 % DMSO + keto.

Regarding `N#CC1(C(=O)NNC(=S)Nc2ccc(Cl)c(Cl)c2)CCCCC1` [DFCI-1], the MIC (as a rule, the lowest concentration that inhibits growth of the organism) turned out to be 6.25 µM (≈ 2.32 µg/mL) in the test on Candida glabrata DSY562; 6.25 µM (≈ 2.32 µg/mL) with Candida glabrata DSY565; 6.25 µM (≈ 2.32 µg/mL) against Candida albicans SC5314; 12.5 µM (≈ 4.64 µg/mL) in the test with Candida albicans DSY2621; 3.12 µM (≈ 1.16 µg/mL) against Candida krusei DSY471; 6.25 µM (≈ 2.32 µg/mL) in [2]. The MIC in [3] was determined as 12.5 µM (≈ 4.64 µg/mL); in test [4], 6.25 µM (≈ 2.32 µg/mL).

For `N#CCC(=O)NNC(=S)Nc1cc(Cl)cc(C(F)(F)F)c1` [Compound A52-8], the MIC was determined as 3.12 µM (≈ 1.05 µg/mL) against Candida glabrata DSY562; 6.25 µM (≈ 2.1 µg/mL) in the test on Candida glabrata DSY565; 3.12 µM (≈ 1.05 µg/mL) against Candida albicans SC5314; 3.12 µM (≈ 1.05 µg/mL) with Candida albicans DSY2621; 3.12 µM (≈ 1.05 µg/mL) in the test on Candida krusei DSY471; 3.12 µM (≈ 1.05 µg/mL) in test [2]. Besides, the results for the MIC in [3] and in [4] were 12.5 µM (≈ 4.21 µg/mL) and 3.12 µM (≈ 1.05 µg/mL), respectively.

Consider `N#CC1(C(=O)NNC(=S)Nc2ccc(Cl)c(Cl)c2)CC1` [Compound A18, 2-(1-Cyanocyclopropanecarbonyl)-N-(3,4-dichlorophenyl)hydrazinecarbothioamide], for which the MIC against Candida glabrata DSY562 was found to be 6.25 µM (≈ 2.06 µg/mL); against Candida glabrata DSY565, 12.5 µM (≈ 4.12 µg/mL); in the test with Candida albicans SC5314, 6.25 µM (≈ 2.06 µg/mL); with Candida albicans DSY2621 it was 6.25 µM (≈ 2.06 µg/mL); with Candida krusei DSY471 it was 6.25 µM (≈ 2.06 µg/mL); in test [2], 12.5 µM (≈ 4.12 µg/mL). For the same compound, the values for the minimum inhibitory concentration (MIC) in [3] and in test [4] were 25 µM (≈ 8.23 µg/mL) and 12.5 µM (≈ 4.12 µg/mL), respectively.

For `OC(Cn1cncn1)(Cn1cncn1)c1ccc(F)cc1F` [fluconazole, reference compound], the “survival of G. mellonella larvae” value is on record as “sensitive to fluconazole alone” in test [5] (fluconazole 50 mg/kg alone) and “did not significantly increase survival” in [5] (single agent (fluconazole 50 mg/kg or iKIX1 25 mg/kg) vs vehicle). Also, the tissue fungal burden result with C. glabrata [6] (25 mg/kg) is reported as “poorly reduced tissue burden”. Further, in the test on C. glabrata [6] (100 mg/kg), the “tissue fungal burden in the kidney and spleen” value is “significantly reduced tissue fungal burden”. In addition, the “fungal load in bladder and kidney” value in the test on C. glabrata [7] was “significantly reduces fungal burden in the bladder and kidney”.

In the case of `COc1cc(NC(=S)NNC(=O)CC#N)cc(Cl)c1Cl`, in test [1], the “Luciferase activity (5 μM + keto) (% DMSO + keto)” value is reported as 52 % DMSO + keto and the “Luciferase activity (50 μM + keto) (% DMSO + keto)” value was found to be 26 % DMSO + keto.

In the case of `N#CCC(=O)NNC(=S)NCc1ccccc1` [Compound A02, reference compound], the “IC50 in the FP assay (in words)” value at CgGal11A KIX domain was “increases the IC50”. For the same compound, the “ketoconazole-induced luciferase activity (in words)” value in test [1] was “abolishes activity”. Besides, in test [8] (CgPDR1 wild-type strain (SFY114), pre-treatment then 40 μM ketoconazole), the “ketoconazole-induced CgPdr1 target gene (CgCDR1) transcription (in words)” value is on record as “abolishes activity”. In addition, the “synergistic C. glabrata cell growth inhibition with azole antifungal agents” value in test [9] is “abolishes activity”. Also, the MIC (against Candida glabrata DSY562; in the test on Candida glabrata DSY565; against Candida albicans SC5314; against Candida albicans DSY2621; against Candida krusei DSY471; in test [2]) was above 100 µM throughout. For the same compound, the MIC in test [3] and in test [4] was above 100 µM throughout.

Consider `N#CC1(C(=O)NNC(=S)Nc2ccc(Cl)c(Cl)c2)CCCCC1` [drawing 51], for which, in test [1], the “Luciferase activity (5 μM + keto) (% DMSO + keto)” value is 53 % DMSO + keto and the “Luciferase activity (50 μM + keto) (% DMSO + keto)” value is 14 % DMSO + keto.

In the case of `N#CCC(=O)NNC(=S)Nc1ccc(Cl)c(F)c1` [Compound A03, N-(4-Chloro-3-fluorophenyl)-2-(2-cyanoacetyl)hydrazinecarbothoamide], the MIC in the test on Candida glabrata DSY562 came to 12.5 µM (≈ 3.58 µg/mL); with Candida glabrata DSY565 it was 25 µM (≈ 7.17 µg/mL); against Candida albicans SC5314, 25 µM (≈ 7.17 µg/mL); in the test on Candida albicans DSY2621, 25 µM (≈ 7.17 µg/mL); in the test on Candida krusei DSY471 it was 12.5 µM (≈ 3.58 µg/mL); in test [2], 12.5 µM (≈ 3.58 µg/mL). Moreover, the MIC in test [3] is 50 µM (≈ 14.3 µg/mL); in test [4] it was 12.5 µM (≈ 3.58 µg/mL).

For `CC(=O)N1CCN(c2ccc(OCC3COC(Cn4ccnc4)(c4ccc(Cl)cc4Cl)O3)cc2)CC1` (stereo not drawn) [ketoconazole, reference compound], the “relative adherence to epithelial cells” value is given as “reduce adherence” in test [10] and “reduced relative adherence to levels comparable to a PDR1 wild-type strain” in test [10] (listed as Ketoconazole).

For the compound `N#CCC(=O)NNC(=S)Nc1ccc(Cl)c(F)c1` [drawing 46], in test [1], the “Luciferase activity (5 μM + keto) (% DMSO + keto)” value was 54 % DMSO + keto and the “Luciferase activity (50 μM + keto) (% DMSO + keto)” value was 30 % DMSO + keto.

For `N#CCC(=O)NNC(=S)Nc1cc(Cl)cc(Cl)c1` [drawing 48], in test [1], the “Luciferase activity (5 μM + keto) (% DMSO + keto)” value is recorded as 45 % DMSO + keto and the “Luciferase activity (50 μM + keto) (% DMSO + keto)” value is recorded as 25 % DMSO + keto.

Consider `N#CCC(=O)NNC(=S)Nc1ccc(C(F)(F)F)c(Cl)c1` [Compound A07, N-(3-Chloro-4-(trifluoromethyl)phenyl)-2-(2-cyanoacetyl) hydrazinecarbothioamide], for which the minimum inhibitory concentration (MIC) is 3.12 µM (≈ 1.05 µg/mL) against Candida glabrata DSY562; 3.12 µM (≈ 1.05 µg/mL) in the test on Candida glabrata DSY565; 3.25 µM (≈ 1.09 µg/mL) in the test with Candida albicans SC5314; 3.25 µM (≈ 1.09 µg/mL) in the test on Candida albicans DSY2621; 6.25 µM (≈ 2.1 µg/mL) against Candida krusei DSY471; 3.25 µM (≈ 1.09 µg/mL) in [2]. The MIC in test [3] came to 6.25 µM (≈ 2.1 µg/mL); in test [4] it was 3.12 µM (≈ 1.05 µg/mL).

For the compound `N#CC1(C(=O)NNC(=S)Nc2ccc(Cl)c(Cl)c2)CC1` [drawing 45], in test [1], the “Luciferase activity (5 μM + keto) (% DMSO + keto)” value was 62 % DMSO + keto and the “Luciferase activity (50 μM + keto) (% DMSO + keto)” value stood at 25 % DMSO + keto. In addition, the “CgCDR1 qRT-PCR (30 μM in PDR1 WT) (% DMSO + keto)” value in test [8] (30 μM compound, PDR1 WT, ketoconazole induced) amounted to 5 % DMSO + keto.

Take `N#CCC(=O)NNC(=S)Nc1cc(Cl)cc(Cl)c1` [Compound A16]: the MIC in the test with Candida glabrata DSY562 was 3.12 µM (≈ 0.947 µg/mL); against Candida glabrata DSY565 it was 6.25 µM (≈ 1.89 µg/mL); with Candida albicans SC5314, 6.25 µM (≈ 1.89 µg/mL); against Candida albicans DSY2621, 6.25 µM (≈ 1.89 µg/mL); against Candida krusei DSY471, 3.25 µM (≈ 0.985 µg/mL); in test [2], 3.25 µM (≈ 0.985 µg/mL). Moreover, the MIC in test [3] was found to be 12.5 µM (≈ 3.79 µg/mL); in [4], 3.12 µM (≈ 0.947 µg/mL).

`N#CCC(=O)NNC(=S)Nc1cc(Cl)cc(C(F)(F)F)c1` [drawing 49]: in test [1], the “Luciferase activity (5 μM + keto) (% DMSO + keto)” value turned out to be 77 % DMSO + keto and the “Luciferase activity (50 μM + keto) (% DMSO + keto)” value turned out to be 28 % DMSO + keto.

On to `N#CCC(=O)NNC(=S)Nc1ccc(C(F)(F)F)c(Cl)c1` [drawing 47], for which, in test [1], the “Luciferase activity (5 μM + keto) (% DMSO + keto)” value was 40 % DMSO + keto and the “Luciferase activity (50 μM + keto) (% DMSO + keto)” value turned out to be 21 % DMSO + keto.
